In ChEMBL document CHEMBL1132262, “Estrogen receptor subtype-selective ligands: asymmetric synthesis and biological evaluation of cis- and trans-5,11-dialkyl- 5,6,11, 12-tetrahydrochrysenes” (J Med Chem, 1999):

Each compound was assayed against Estrogen receptor beta (Homo sapiens) (UniProt Q92731) (assay: Binding affinity for human ER(estrogen receptor)beta).
Chain of Estrogen receptor beta (Homo sapiens) (Q92731 whole entry): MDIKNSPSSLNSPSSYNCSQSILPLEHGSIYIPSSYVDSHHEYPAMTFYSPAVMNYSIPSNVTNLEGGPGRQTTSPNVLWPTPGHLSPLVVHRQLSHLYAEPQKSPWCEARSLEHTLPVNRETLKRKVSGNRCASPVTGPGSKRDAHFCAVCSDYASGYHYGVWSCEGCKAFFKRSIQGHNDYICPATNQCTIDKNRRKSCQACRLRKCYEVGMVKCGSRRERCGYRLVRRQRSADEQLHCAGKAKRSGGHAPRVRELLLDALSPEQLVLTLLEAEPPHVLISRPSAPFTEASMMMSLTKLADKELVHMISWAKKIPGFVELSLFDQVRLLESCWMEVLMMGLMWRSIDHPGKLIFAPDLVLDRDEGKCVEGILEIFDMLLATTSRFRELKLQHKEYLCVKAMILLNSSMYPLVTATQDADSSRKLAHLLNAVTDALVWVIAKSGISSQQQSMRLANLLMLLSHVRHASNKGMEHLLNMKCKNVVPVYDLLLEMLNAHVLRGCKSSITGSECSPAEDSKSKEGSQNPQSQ

In order of falling Relative binding affinity:
1. C[C@@H]1Cc2cc(O)ccc2C2=C1c1ccc(O)cc1C[C@@H]2C  254
2. C[C@]12CC[C@@H]3c4ccc(O)cc4CC[C@H]3[C@@H]1CC[C@@H]2O  100
3. CCCC1Cc2cc(O)ccc2C2=C1c1ccc(O)cc1CC2CCC (stereo not drawn)  92.3
4. CC1Cc2cc(O)ccc2C2=C1c1ccc(O)cc1C[C@H]2C (single isomer, unassigned)  76
5. CC1Cc2cc(O)ccc2C2=C1c1ccc(O)cc1C[C@@H]2C (single isomer, unassigned)  75
6. CCC[C@@H]1Cc2cc(O)ccc2C2=C1c1ccc(O)cc1C[C@H]2CCC  26
7. Oc1ccc2c(c1)CCC1=C2CCc2cc(O)ccc21  6.5
8. CCC[C@H]1Cc2cc(O)ccc2C2=C1c1ccc(O)cc1C[C@@H]2CCC  5.1
